Experimental data from article PMC4229968, “The Inhibition of the Components from Shengmai Injection towards UDP-Glucuronosyltransferase” (Evidence-based Complementary and Alternative Medicine : eCAM, 2014).

How the values were obtained:
Format in all cases: in vitro ADME
UGT2B7 = molecular target: T1, UGT2B7 (Homo sapiens, UniProt P16662); test: Recombinant UGT2B7-catalyzed 4-MU glucuronidation inhibition; details: pH 7.4, probe 4-methylumbelliferone (4-MU), UGT2B7, 100 μM of compound, 4-MU substrate, read-out: residual activity
T1 construct: purchased BD Gentest Corp. (Woburn, MA, USA); host or cells: baculovirus-infected insect cells
T1 sequence (P16662 24-529): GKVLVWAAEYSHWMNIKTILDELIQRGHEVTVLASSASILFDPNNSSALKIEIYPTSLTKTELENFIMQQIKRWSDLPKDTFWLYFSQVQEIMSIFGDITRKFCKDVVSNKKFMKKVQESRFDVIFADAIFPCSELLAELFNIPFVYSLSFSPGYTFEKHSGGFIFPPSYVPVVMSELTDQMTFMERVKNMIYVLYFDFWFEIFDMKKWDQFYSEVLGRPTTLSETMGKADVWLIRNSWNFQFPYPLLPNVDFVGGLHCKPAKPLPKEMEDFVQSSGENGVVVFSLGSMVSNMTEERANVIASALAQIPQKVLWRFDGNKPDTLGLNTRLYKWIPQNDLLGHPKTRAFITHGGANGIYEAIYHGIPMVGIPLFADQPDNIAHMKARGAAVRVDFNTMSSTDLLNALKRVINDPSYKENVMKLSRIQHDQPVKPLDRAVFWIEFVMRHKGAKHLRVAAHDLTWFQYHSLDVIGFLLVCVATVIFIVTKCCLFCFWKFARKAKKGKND
From the text: (§1) 4-Methylumbelliferone (4-MU), 4-methylumbelliferone-β-D-glucuronide (4-MUG), Tris-HCl, 7-hydroxycoumarin, and uridine-5′-diphosphoglucuronic acid (UDPGA) (trisodium salt) were purchased from Sigma-Aldrich (St. Louis, MO). Recombinant human UGT isoforms (UGT1A1, UGT1A3, UGT1A4, UGT1A6, UGT1A7, UGT1A8, UGT1A9, UGT1A10, UGT2B4, UGT2B7, and UGT2B15) expressed in baculovirus-infected insect cells were obtained from BD Gentest Corp. (Woburn, MA, USA). Ophiopogonin D (OD), ophiopogonin D′ (OD′), methylophiopogonanone A (MA), methylophiopogonanone B (MB), and ruscorectal (RU) were purchased from Sichuan Weikeqi Biotechnology Company (Chengdu, Sichuan, China). The purity of these compounds was above 95%. All other reagents were of HPLC grade or of the highest grade commercially available.
(§2) 4-MU, the nonspecific probe substrate for all the UGT isoforms except UGT1A4, was used in the present study to initially screen the inhibition potential of maidong's components towards UGT isoforms as previously reported. In brief, the incubation system (total volume = 200 μL) consisted of recombinant UGTs, 5 mM UDPGA, 5 mM MgCl2, 50 mM Tris-HCl (pH = 7.4), and 4-MU in the absence or presence of different concentrations of maidong's components. The compounds were dissolved in DMSO, and the final concentration of DMSO was below 0.5% (v/v). The used incubation time and protein concentration were previously determined to ensure the reaction rate within the linear range. The 4-MU concentration was equal to known K m or S 50 values for each UGT isoform. After 5 min preincubation at 37°C, the incubation reaction was initiated via adding UDPGA to the mixture system. The reactions were quenched by adding 100 μL acetonitrile with 7-hydroxycoumarin (100 μM) as internal standard. Centrifuged at 20000 ×g for 10 min, an aliquot of supernatant was transferred to an autoinjector vial for HPLC analysis. The HPLC system (Shimadzu, Kyoto, Japan) contained a SCL-10A system controller, two LC-10AT pumps, a SIL-10A autoinjector, and a SPD-10AVP UV detector. Chromatographic separation was carried out using a C18 column (4.6 × 200 mm, 5 μm, Kromasil) at a flow rate of 1 mL/min and UV detector at 316 nm. The mobile phase consisted of acetonitrile (A) and H2O containing 0.5% (v/v) formic acid (B). The following gradient condition was used: 0–15 min, 95–40% B; 15–20 min, 10% B; 20–30 min, 95% B.

UGT1A7 = molecular target: T2, UGT1A7 (Homo sapiens, UniProt Q9HAW7); test: Recombinant UGT1A7-catalyzed 4-MU glucuronidation inhibition; details: pH 7.4, probe 4-methylumbelliferone (4-MU), UGT1A7, 100 μM of compound, 4-MU substrate, read-out: residual activity
T2 construct: purchased BD Gentest Corp. (Woburn, MA, USA); host or cells: baculovirus-infected insect cells
T2 sequence (Q9HAW7 26-530): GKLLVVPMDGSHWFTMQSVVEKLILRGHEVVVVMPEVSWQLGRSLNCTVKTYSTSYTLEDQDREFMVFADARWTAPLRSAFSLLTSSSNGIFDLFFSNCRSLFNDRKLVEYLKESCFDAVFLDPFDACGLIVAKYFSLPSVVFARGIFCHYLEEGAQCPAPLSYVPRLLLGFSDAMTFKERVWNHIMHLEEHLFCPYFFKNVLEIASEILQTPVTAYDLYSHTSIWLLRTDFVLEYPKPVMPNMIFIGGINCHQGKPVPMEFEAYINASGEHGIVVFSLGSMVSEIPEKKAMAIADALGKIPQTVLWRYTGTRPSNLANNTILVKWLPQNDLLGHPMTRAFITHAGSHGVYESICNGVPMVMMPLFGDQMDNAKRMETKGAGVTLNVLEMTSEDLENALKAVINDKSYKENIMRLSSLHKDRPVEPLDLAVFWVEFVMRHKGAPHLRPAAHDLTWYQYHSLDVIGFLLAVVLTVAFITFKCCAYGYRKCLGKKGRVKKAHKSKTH
From the text: as §1, §2

UGT1A1 = molecular target: T3, UGT1A1 (Homo sapiens, UniProt P22309); test: Recombinant UGT1A1-catalyzed 4-MU glucuronidation inhibition; details: pH 7.4, probe 4-methylumbelliferone (4-MU), UGT1A1, 100 μM of compound, 4-MU substrate, read-out: residual activity
T3 construct: purchased BD Gentest Corp. (Woburn, MA, USA); host or cells: baculovirus-infected insect cells
T3 sequence (P22309 26-533): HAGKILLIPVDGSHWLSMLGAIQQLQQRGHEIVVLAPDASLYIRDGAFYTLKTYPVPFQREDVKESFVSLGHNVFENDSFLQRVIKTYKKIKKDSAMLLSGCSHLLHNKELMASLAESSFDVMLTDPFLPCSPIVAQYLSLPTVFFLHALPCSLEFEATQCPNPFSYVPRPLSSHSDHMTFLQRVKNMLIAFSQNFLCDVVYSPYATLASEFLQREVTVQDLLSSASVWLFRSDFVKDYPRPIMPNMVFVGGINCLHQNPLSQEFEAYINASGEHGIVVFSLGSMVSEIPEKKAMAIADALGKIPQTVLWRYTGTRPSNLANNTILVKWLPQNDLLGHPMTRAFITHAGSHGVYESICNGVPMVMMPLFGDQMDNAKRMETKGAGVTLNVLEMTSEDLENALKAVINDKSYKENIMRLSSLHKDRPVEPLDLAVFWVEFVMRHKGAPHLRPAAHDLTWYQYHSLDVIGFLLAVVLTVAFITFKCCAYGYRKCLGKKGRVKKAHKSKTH
From the text: as §1, §2

| Compound | activity at 100 µM (UGT2B7) [%] | activity at 100 µM (UGT1A7) [%] | activity at 100 µM (UGT1A1) [%] |
| --- | --- | --- | --- |
| C[C@@H]1CC[C@@]2(OC1)O[C@H]1C[C@H]3[C@@H]4CC=C5C[C@@H](O)C[C@@H](O[C@@H]6O[C@H](C)[C@H](O)[C@H](O[C@@H]7OC[C@@H](O)[C@H](O)[C@H]7O)[C@H]6O[C@@H]6O[C@@H](C)[C@H](O)[C@@H](O)[C@H]6O)[C@]5(C)[C@H]4CC[C@]3(C)[C@H]1[C@@H]2C [OD, ophiopogonin D] | 85.4 ± 7.3 | 144 ± 8.7 | 77.1 ± 3.8 |
| C[C@@H]1CC[C@@]2(OC1)O[C@H]1C[C@H]3[C@@H]4CC=C5C[C@@H](O[C@@H]6O[C@H](CO)[C@@H](O)[C@H](O[C@@H]7OC[C@@H](O)[C@H](O)[C@H]7O)[C@H]6O[C@@H]6O[C@@H](C)[C@H](O)[C@@H](O)[C@H]6O)CC[C@]5(C)[C@H]4CC[C@]3(C)[C@H]1[C@@H]2C [OD′, ophiopogonin D′] | 77.4 ± 7.1 | 122 ± 1.3 | 81 ± 12.6 |
| Cc1c(O)c(C)c2c(c1O)C(=O)[C@H](Cc1ccc3c(c1)OCO3)CO2 [MA, methylophiopogonanone A] | 23.3 ± 16.7 | 57.5 ± 10.8 | 31.3 ± 1.3 |
| COc1ccc(C[C@@H]2COc3c(C)c(O)c(C)c(O)c3C2=O)cc1 [MB, methylophiopogonanone B] | 82.8 ± 14.5 | 83.4 ± 5.9 | 27.9 ± 11.1 |
| CC1CCC2(OC1)OC1CC3C4CC=C5CC(O)CC(O)C5(C)C4CCC3(C)C1C2C (stereo not drawn) [RU, ruscorectal] | 125 ± 59 | 52.4 ± 7.4 | 41.5 ± 36.9 |
